Experimental data from PubChem BioAssay AID1963972 (Molecular Pharmacology Branch, DTP, NCI, 2024).
pIC50: −log10 of the molar value.

Test system: 945468-187-T-J2-PDC spheroids viability
Assay: Anticancer human tumor 945468-187-T-J2-PDC patient-derived rectal carcinoma cell line growth inhibition [PI3K]
Conditions: spheroids with HUVEC and MSC; for pIC50: curve of first compound; for viability, T/C: stronger effect = lower value
In short: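 Multi-cell spheroids combine tumor cells with HUVEC and human MSCs, treated with targeted agents alone or with inavolisib, alpelisib, duvelisib or copanlisib. Concentrations fall in half-log steps from at or near clinical Cmax, or from 10 microM where Cmax is unknown; viability read-out.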

[1] = second compound 0.00316 µM, first compound 0.0316 µM
[2] = second compound 0.00316 µM, first compound 0.1 µM
[3] = second compound 0.00316 µM, first compound 0.316 µM
[4] = second compound 0.00316 µM, first compound 1 µM
[5] = second compound 0.00316 µM, first compound 3.16 µM
[6] = second compound 0.00316 µM, first compound 10 µM
[7] = second compound 0.01 µM, first compound 0.0316 µM
[8] = second compound 0.01 µM, first compound 0.1 µM
[9] = second compound 0.01 µM, first compound 0.316 µM
[10] = second compound 0.01 µM, first compound 1 µM
[11] = second compound 0.01 µM, first compound 3.16 µM
[12] = second compound 0.01 µM, first compound 10 µM
[13] = second compound 0.0316 µM, first compound 0.0316 µM
[14] = second compound 0.0316 µM, first compound 0.1 µM
[15] = second compound 0.0316 µM, first compound 0.316 µM
[16] = second compound 0.0316 µM, first compound 1 µM
[17] = second compound 0.0316 µM, first compound 3.16 µM
[18] = second compound 0.0316 µM, first compound 10 µM
[19] = second compound 0.1 µM, first compound 0.0316 µM
[20] = second compound 0.1 µM, first compound 0.1 µM
[21] = second compound 0.1 µM, first compound 0.316 µM
[22] = second compound 0.1 µM, first compound 1 µM
[23] = second compound 0.1 µM, first compound 3.16 µM
[24] = second compound 0.1 µM, first compound 10 µM
[25] = second compound 0.316 µM, first compound 0.0316 µM
[26] = second compound 0.316 µM, first compound 0.1 µM
[27] = second compound 0.316 µM, first compound 0.316 µM
[28] = second compound 0.316 µM, first compound 1 µM
[29] = second compound 0.316 µM, first compound 3.16 µM
[30] = second compound 0.316 µM, first compound 10 µM
[31] = second compound 1 µM, first compound 0.0316 µM
[32] = second compound 1 µM, first compound 0.1 µM
[33] = second compound 1 µM, first compound 0.316 µM
[34] = second compound 1 µM, first compound 1 µM
[35] = second compound 1 µM, first compound 3.16 µM
[36] = second compound 1 µM, first compound 10 µM
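Further: spheroids exposed to compounds for seven days before reading.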

Which results are given for `Cn1ncc(Cl)c1-c1cc(C(=O)NC(CN)Cc2cccc(F)c2)sc1Cl` (centres undefined) + COc1c(OCCCN2CCOCC2)ccc2c3n(c(=NC(=O)c4cnc(N)nc4)nc12)CCN3?
pIC50 (second compound 0.00316 µM): < 5.00; pIC50 (second compound 0.01 µM): < 5.00; pIC50 (second compound 0.0316 µM): 5.34; pIC50 (second compound 0.1 µM): 5.58; pIC50 (second compound 0.316 µM): > 7.50; pIC50 (second compound 1 µM): > 7.50; viability, T/C [1]: 109%; viability, T/C [2]: 75.3%; viability, T/C [3]: 98.3%; viability, T/C [4]: 110%; viability, T/C [5]: 76.8%; viability, T/C [6]: 50.6%; viability, T/C [7]: 109%; viability, T/C [8]: 102%; viability, T/C [9]: 90.5%; viability, T/C [10]: 86.6%; viability, T/C [11]: 77.2%; viability, T/C [12]: 53.3%; viability, T/C [13]: 87.3%; viability, T/C [14]: 82.5%; viability, T/C [15]: 82.4%; viability, T/C [16]: 68.9%; viability, T/C [17]: 54.3%; viability, T/C [18]: 41.4%; viability, T/C [19]: 65.6%; viability, T/C [20]: 84.9%; viability, T/C [21]: 75.2%; viability, T/C [22]: 73%; viability, T/C [23]: 46%; viability, T/C [24]: 32.2%; viability, T/C [25]: 38.8%; viability, T/C [26]: 34.8%; viability, T/C [27]: 35.4%; viability, T/C [28]: 28.8%; viability, T/C [29]: 32.2%; viability, T/C [30]: 26.1%; viability, T/C [31]: 18.5%; viability, T/C [32]: 18.8%; viability, T/C [33]: 18.2%; viability, T/C [34]: 19.6%; viability, T/C [35]: 18.4%; viability, T/C [36]: 14.2%

`Cn1nccc1Nc1nccc(-c2ccn(C(CO)c3ccc(Cl)c(F)c3)c(=O)c2)n1` (centres undefined) + COc1c(OCCCN2CCOCC2)ccc2c3n(c(=NC(=O)c4cnc(N)nc4)nc12)CCN3 was tested. Which pIC50 (second compound 0.00316 µM) did it give?
Its pIC50 is under 5.00.

What about the pIC50 (second compound 0.01 µM) of the same compound?
Its pIC50 is under 5.00.

And the pIC50 (second compound 0.0316 µM)?
Its pIC50 is under 5.00.

And the pIC50 (second compound 0.1 µM)?
The pIC50 was under 5.00.

And the pIC50 (second compound 0.316 µM)?
The pIC50 was over 7.50.

And the pIC50 (second compound 1 µM)?
The pIC50 was over 7.50.

What about the viability, T/C [1] of the same compound?
Its viability, T/C is 117%.

And the viability, T/C [2]?
The viability, T/C was 108%.

And the viability, T/C [3]?
Its viability, T/C is 98.9%.

And the viability, T/C [4]?
Its viability, T/C is 83.7%.

And the viability, T/C [5]?
Its viability, T/C is 90.9%.

What about the viability, T/C [6] of the same compound?
The viability, T/C was 80.7%.

And the viability, T/C [7]?
The viability, T/C was 99%.

What about the viability, T/C [8] of the same compound?
The viability, T/C was 93.7%.

And the viability, T/C [9]?
The viability, T/C was 90.1%.

And the viability, T/C [10]?
The viability, T/C was 136%.

What about the viability, T/C [11] of the same compound?
Its viability, T/C is 127%.

And the viability, T/C [12]?
Its viability, T/C is 84.2%.

What about the viability, T/C [13] of the same compound?
The viability, T/C was 91.9%.

What about the viability, T/C [14] of the same compound?
The viability, T/C was 102%.

What about the viability, T/C [15] of the same compound?
The viability, T/C was 100%.

What about the viability, T/C [16] of the same compound?
Its viability, T/C is 89.1%.

And the viability, T/C [17]?
The viability, T/C was 93.5%.

And the viability, T/C [18]?
Its viability, T/C is 89.2%.

What about the viability, T/C [19] of the same compound?
Its viability, T/C is 71%.

And the viability, T/C [20]?
Its viability, T/C is 75.9%.

What about the viability, T/C [21] of the same compound?
Its viability, T/C is 81.1%.

What about the viability, T/C [22] of the same compound?
Its viability, T/C is 82.2%.

What about the viability, T/C [23] of the same compound?
Its viability, T/C is 84.3%.

And the viability, T/C [24]?
The viability, T/C was 64.9%.

And the viability, T/C [25]?
The viability, T/C was 39.8%.

What about the viability, T/C [26] of the same compound?
The viability, T/C was 45.6%.

And the viability, T/C [27]?
Its viability, T/C is 45.3%.

And the viability, T/C [28]?
The viability, T/C was 41.7%.

What about the viability, T/C [29] of the same compound?
The viability, T/C was 33.4%.

And the viability, T/C [30]?
The viability, T/C was 27.8%.

And the viability, T/C [31]?
The viability, T/C was 18.1%.

What about the viability, T/C [32] of the same compound?
The viability, T/C was 19.8%.

And the viability, T/C [33]?
Its viability, T/C is 21.8%.

What about the viability, T/C [34] of the same compound?
Its viability, T/C is 18.6%.

What about the viability, T/C [35] of the same compound?
The viability, T/C was 18.6%.

What about the viability, T/C [36] of the same compound?
Its viability, T/C is 16.8%.
